Reference: patent publication US9848603B2, “Methods for protecting plants with antifungal compositions” (priority 2008, dated 2017)
Ends that are not written are not given here.

Experiments:
[1] = system: Verticillium dahliae; experiment: Growth of Verticillium dahliae in the presence of NaD1 and chemical fungicides in vitro; format: cell-based; conditions: V. dahliae growth curves, combination with NaD1
Method: The inhibitory effects of defensin (NaD1) and chemical fungicides were assayed on growth of Verticillium dahliae (Australian isolate VCG-4B, Dr. Stephen Allen, Cotton Seed Distributors, Narrabri, NSW, Australia) in vitro.
Spores of V. dahliae were isolated from sporulating cultures growing in Czapek-Dox broth (Difco) for 1-2 weeks at room temperature. Spores were separated from hyphal matter by filtration through sterile tissue paper and the concentration of spores in the filtrate was measured using a hemocytometer. NaD1 and the fungicides were prepared as described in Example 1. The conditions used for the fungal growth assay were the same as those described in Example 1 except that Czapek-Dox broth was used in place of PDB.

[2] = system: Leptosphaeria maculans; experiment: Growth of Leptosphaeria maculans in the presence of NaD1 and chemical fungicides in vitro; format: cell-based; conditions: L. maculans, combination with NaD1
Method: The defensin (NaD1) and the chemical fungicides prothioconazole (Sigma-Aldrich Cat #34232, 99.9% pure) and fluquinconazole (Nova Chem, Cat #C13805000, 98.5% pure) were assessed for their individual and combined inhibitory effects on the growth of Leptosphaeria maculans (Australian isolate IBCN18, Prof. B. Howlett) in vitro.
Leptosphaeria maculans was grown in 10% (v/v) V8 medium for about 2 weeks. Spores were collected by filtration through sterile muslin and adjusted to a final concentration of 5×10^4 spores/mL. The conditions used for the fungal growth assay were the same as those described in Example 1 except 10% (v/v) V8 medium was used.

[3] = system: Fusarium oxysporum f. sp. vasinfectum (Fov); experiment: Growth of Fusarium oxysporum in the presence of NaD1 and chemical fungicides in vitro; format: cell-based; conditions: Fov growth curves, combination with NaD1
Method: The inhibitory effects of defensin (NaD1) and chemical fungicides on the growth of Fusarium oxysporum f. sp. vasinfectum (Fov) (Australian isolate VCG01111 isolated from cotton and provided by Farming Systems Institute, DPI, Queensland, Australia) were measured essentially as described by Broekaert, et al (1990). Spores were isolated from sporulating cultures growing in ½ strength potato dextrose broth (PDB). The Fov culture was grown in ½ PDB for 1-2 weeks at room temperature, before spores were separated from hyphal matter by filtration through sterile tissue paper. The concentration of spores in the filtrate was measured using a hemocytometer. NaD1 and the fungicides were prepared as described in Example 1. The conditions used for the fungal growth assay were the same as those described in Example 1.

[4] = system: Candida albicans; experiment: Effect of NaD1 on growth of yeast strains
Method: (§1) The effect of NaD1 on the growth of the yeast strains Candida albicans, Pichia pastoris and Saccharomyces cerevisiae (from Department of Microbiology, La Trobe University) was assayed in microtitre plates. Cells were grown in YPD for 48 h, then counted using a haemocytometer and diluted to a concentration of 5×10^4 cells/mL in fresh YPD. Cell suspension (100 μL) containing 0-10 μM NaD1 was added to the wells of a 96-well microtitre plate and incubated for 48 h at 30° C. Growth was determined by measuring the optical density at 595 nm using a microtitre plate reader. Each test was performed in quadruplicate.

[5] = system: Fusarium oxysporum f. sp. vasinfectum (Fov); format: cell-based
[6] = system: Fov hyphae; experiment: Membrane permeabilization of Fov hyphae, SYTOX green uptake; format: cell-based, Fusarium oxysporum f. sp. vasinfectum; conditions: 0.1, 2 or 10 μM NaD1 or 10 μM NaD1R&A
[7] = system: Fov hyphae; experiment: Detection of reactive oxygen species (DHR123 oxidation) in response to NaD1; conditions: for effect of ROS scavenger on NaD1-induced DHR123 oxidation: in the presence of ascorbic acid or TEMPO
[8] = system: Saccharomyces cerevisiae; experiment: Effect of NaD1 on growth of yeast strains
Method: as §1

[9] = system: Fov hyphae; experiment: Uptake of fluorescently labeled NaD1 (NaD1-bimane) by fluorescence microscopy; conditions: live hyphae
Method: Hyphae grown for 18 h as described were treated with NaD1-bimane (2 μM) for between 10 min and 6 h. Hyphae were then visualized by fluorescence microscopy using an MWU filter (excitation wavelength of 330-385 nm).

[10] = system: Fusarium graminearum; experiment: microbe, parasite or virus in culture; format: cell-based

Molecule: C[Si](Cn1cncn1)(c1ccc(F)cc1)c1ccc(F)cc1 [flusilazole]
- synergism with NaD1 [1]: Synergism

Molecule: O=c1c2cc(F)ccc2nc(-n2cncn2)n1-c1ccc(Cl)cc1Cl [fluquinconazole]
- enhancement of fungicide activity by defensin [2]: synergistic

Molecule: CC(C)(C)C(O)(CCc1ccc(Cl)cc1)Cn1cncn1 (stereo not drawn) [tebuconazole]
- synergism with NaD1 [1]: Synergism

Molecule: CO/C=C(/C(=O)OC)c1ccccc1Oc1cc(Oc2ccccc2C#N)ncn1 [azoxystrobin]
- synergism with NaD1 [3]: synergistic effect

Molecule: CO/N=C(/C1=NOCCO1)c1ccccc1Oc1ncnc(Oc2ccccc2Cl)c1F [fluoxastrobin]
- synergism with NaD1 [3]: synergy

Molecule: RsAFP2: plant defensin from radish (QKLCQRPSGTWSGVCGNNNACKNQCIRLEKARHGSCNYVFPAHKCICYFPC; UniProt P30230 30-80, looked up) [reference compound]
- effect on growth [4]: inhibited the growth

Molecule: NaD1 labeled with FITC: NaD1 labeled with FITC via reactive amine groups (RECKTESNTFPGICITKPPCRKACISEKFTDGHCSKILRRCLCTKPC; cysteine pairing not given here; also: FITC label via reactive amine groups; UniProt Q8GTM0 26-72, looked up)
- antifungal activity of labeled NaD1 [5]: not biologically active

Molecule: OC(Cc1ccccc1Cl)(Cn1nc[nH]c1=S)C1(Cl)CC1 (stereo not drawn) [prothioconazole]
- enhancement of fungicide activity by defensin [2]: synergistic

Molecule: NaD1R&A: NaD1 with cysteine residues reduced and alkylated (RECKTESNTFPGICITKPPCRKACISEKFTDGHCSKILRRCLCTKPC; also: cysteines reduced and alkylated; UniProt Q8GTM0 26-72, looked up)
- activity in growth inhibitory assays [5]: completely inactive
- permeabilization of hyphae (SYTOX green) [6]: Permeabilization was not observed
- ROS production (DHR123 oxidation fluorescence) ([7]; NaD1 0.1, 2 and 10 μM or 10 μM NaD1R&A): No fluorescence was observed

Molecule: DmAMP1: plant defensin from dahlia (ELCEKASKTWSGNCGNTGHCDNQCKSWEGAAHGACHVRNGKHMCFCYFNC; UniProt P0C8Y4 1-50, looked up) [reference compound]
- effect on growth [8]: inhibited the growth

Molecule: CC1(C)CCCC(C)(C)N1[O] [TEMPO]
- effect of ROS scavenger on NaD1-induced DHR123 oxidation [7]: did not alter the level of fluorescence

Molecule: NaD1-bimane: NaD1 labeled with the fluorophore bimane amine on carboxyl residues (RECKTESNTFPGICITKPPCRKACISEKFTDGHCSKILRRCLCTKPC; cysteine pairing not given here; also: bimane amine fluorophore on carboxyl residues; UniProt Q8GTM0 26-72, looked up)
- antifungal activity of labeled NaD1 [5]: retained full antifungal activity
- time at which internalization was observed [9]: 20 to 30 min

Molecule: CCCC1COC(Cn2cncn2)(c2ccc(Cl)cc2Cl)O1 (stereo not drawn) [propiconazole]
- toxicity with Fusarium graminearum ([10]; 0.24 μM NaD1 combined with 1 mg/L propiconazole): significantly enhanced
- synergism with NaD1 ([10]; F. graminearum growth curves, combination with NaD1): Synergism
- inhibition at 0.06 µg/mL ([10]; Fusarium graminearum, read-out: inhibition of fungal growth): ~13%
- inhibition of fungal growth ([10]; combination of 0.5 μM defensin and 0.06 mg/L propiconazole): about 78%
- synergism with NaD1 [3]: Synergism
- synergism with NaD1 [1]: Synergism

Molecule: CO/C=C(/C(=O)OC)c1ccccc1COc1cccc(C(F)(F)F)n1 [picoxystrobin]
- synergism with NaD1 [3]: synergy

Molecule: O=C1O[C@H]([C@@H](O)CO)C(O)=C1O [ascorbic acid, Ascorbic acid]
- effect of ROS scavenger on growth inhibition of Fov by NaD1 [5]: nor did the presence of 10 mM ascorbic acid affect growth inhibition of Fov by NaD1
- effect of ROS scavenger on NaD1-induced DHR123 oxidation [7]: did not alter the level of fluorescence
